Results: patent publication US20240209043A1, “NON-ANTIBODY BINDING PEPTIDES AND THEIR ANALOGS DUAL-TARGETING TO PD-1 AND PD-L1, AND USES THEREOF” (ORAL SUBSIDIARY SUN YAT-SEN UNIVERSITY HOSPITAL, priority 2021, published 2024)
Entries after “also recorded” stand apart in the source; their conditions may differ. Each block holds one compound with its values, some of them ahead of it. Where a SMILES comes first, the peptide text is derived from it. Bridges are numbered along the chain shown (N, C = ends). Roman numbers before positions name the chains, in order. Where no end group is shown, it is not given here.

How the values were obtained:
[1] = molecular target: T1, PD-L1 (Homo sapiens, UniProt Q9NZQ7); assay: ka (1/Ms)
Excerpt: Table printed on a drawing sheet, Figure 2F
Title: nABP786 binding to PD-L1
(§1) Head of the field: ka (1/Ms)
(§2) The patent's description of the figure: FIG. 2A depicts test results of binding affinity of nABP284 to PD-1 measured by surface plasmon resonance (SPR);
(§3) FIG. 2B depicts test results of binding affinity of nABP386 to PD-1 measured by SPR;
(§4) FIG. 2C depicts test results of binding affinity of nABP486 to PD-1 measured by SPR;
(§5) FIG. 2D depicts test results of binding affinity of nABP486 to PD-L1 measured by SPR;
(§6) FIG. 2E depicts test results of binding affinity of nABP786 to PD-1 measured by SPR;
(§7) FIG. 2F depicts test results of binding affinity of nABP786 to PD-L1 measured by SPR;
First copying reader's note: Inset table of SPR kinetic constants printed above the sensorgram; the target is PD-L1.
Where the first naming reader finds the target: table_title: nABP786 binding to PD-L1
Target sequence in this assay (Q9NZQ7 19-290 limits assumed): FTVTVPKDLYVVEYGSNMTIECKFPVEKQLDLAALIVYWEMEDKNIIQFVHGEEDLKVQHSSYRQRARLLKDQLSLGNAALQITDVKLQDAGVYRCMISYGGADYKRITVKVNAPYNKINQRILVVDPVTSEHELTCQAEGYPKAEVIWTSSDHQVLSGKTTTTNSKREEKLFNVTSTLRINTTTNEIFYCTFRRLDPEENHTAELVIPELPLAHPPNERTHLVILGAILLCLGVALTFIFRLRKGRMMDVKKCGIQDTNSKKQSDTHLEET

[2] = molecular target: T2, PD-1 (Homo sapiens, UniProt Q15116); assay: ka (1/Ms)
Excerpt: Table printed on a drawing sheet, Figure 2E
Title: nABP786 binding to PD-1
as §1, §2, §3, §4, §5, §6, §7
Target sequence in this assay (Q15116 25-288 limits assumed): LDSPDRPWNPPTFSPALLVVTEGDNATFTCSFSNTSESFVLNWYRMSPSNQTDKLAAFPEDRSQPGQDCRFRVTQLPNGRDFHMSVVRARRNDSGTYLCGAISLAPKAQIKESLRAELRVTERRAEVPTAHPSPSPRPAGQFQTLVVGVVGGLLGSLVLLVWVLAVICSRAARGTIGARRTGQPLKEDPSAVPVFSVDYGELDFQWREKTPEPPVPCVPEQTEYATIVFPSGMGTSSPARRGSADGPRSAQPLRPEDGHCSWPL
First copying reader's note: Inset table of SPR kinetic constants printed above the sensorgram; the target is PD-1.
Where the first naming reader finds the target: table_title: nABP786 binding to PD-1

[3] = molecular target: T1, PD-L1; conditions: background section; read-out: Kd-value of antibody drug targeting PD-L1; cited from earlier work
Target sequence in this assay (Q9NZQ7 19-290): as the sequence (Q9NZQ7 19-290 limits assumed) above

[4] = molecular target: T2, PD-1; conditions: background section; read-out: Kd-value of antibody drug targeting PD-1; cited from earlier work
Target sequence in this assay (Q15116 25-288): as the sequence (Q15116 25-288 limits assumed) above

[5] = system: Cal27 cells; assay: CCK-8 cytotoxicity assay on Cal27 cells; assay type: cell-based, Human; conditions: CCK-8, 1-64 μM, 24 hours
Protocol: (§8) Cytotoxicity assay was performed and measured with Cell Counting Kit-8 (CCK-8, Dujindo, Japan). Jurkat cells (each well with 4000 cells), PBMCs (each well with 4000 cells) and Cal27 cells (each well with 2000 cells) were added into a 96-well plate and cultured for 24 hours, respectively. nABP284, nABP386 and nABP486 in a concentration gradient of 1 μM, 2 μM, 3 μM, 4 μM, 8 μM, 16 μM, 32 μM and 64 μM were added into the medium and the cells were cultured for 24 hours in a cell incubator. After that, 10 μl of CCK-8 solution was added to each well and the cells were incubated for 2 hours. VictorX5 Multilabel plate reader (PerkinElmer, Singapore) was used for measuring absorbance of each well at 450 nm. Cell viability (%) was calculated by the following formula:
(§9) Cell viability (%)=[(Sample A−Background A)/(Control A−Blank A)×100%. • Wherein Sample A denotes the absorbance of the experimental well (including cells, CCK-8 solution, medium and peptide diluent) • Background A denotes the absorbance of the background hole (including CCK-8 solution, medium, and peptide diluent without cells); • Control A denotes the absorbance of the control hole (including cells, CCK-8 solution and medium without peptide diluent); and • Blank A denotes the absorbance of the blank hole (including CCK-8 solution and medium without cells and peptide diluent).

[6] = system: Cal27 cells co-cultured with iCIKs; assay: iCIKs-mediated tumor killing efficiency on Cal27 cells (LDH release); assay type: cell-based, Human; conditions: 10 μM peptide or 2 ug/ml antibody, iCIKs:Cal27 10 to 1, 6 hours
Protocol: Human peripheral blood and PBS are mixed at a ratio of 1 to 1, and then the mixture was added to the surface of Ficoll solution in an equal volume and the mixture and Ficoll were kept layered. Density gradient centrifugation (400 g, 20 min) was used for separating components of the peripheral blood. 10 ug/ml of Anti-CD3 monoclonal antibody (T210, TAKARA) was coated on cell culture dishes to cover the mixture at 4° C. overnight. The separated PBMCs were added to the coated dishes in which RPMI1640 medium supplemented with 10% of fetal calf serum, 2000 U/ml of IFN-γ, and 10 ng/ml of IL-2 was added and was changed every three days. After a ten-day culture, the stimulated PBMCs were known as improving cytokine-induced killer cells (iCIKs).
500 U/ml of IFN-γ was used for stimulating Cal27 cells for 48 hours. The iCIKs were incubated with 10 uM of nABP284, 10 μM of nABP386, 10 μM of nABP486, and 2 ug/ml of PD-1 functional monoclonal antibody (J116, eBioscience|ThermoFisher Science) for 1 hour at 37° C., respectively, and the stimulated CAL27 cells were added to the 96-well plate at 1×10^4 cells per well. […] After these cells were co-cultured for 6 hours, a Cyto Tox Non-Radioactive Cytotoxicity Assay kit was used for detecting the level of lactic dehydrogenase (LDH) in the medium and VictorX5 multilabel plate reader (PerkinElmer, Singapore) was used for measuring absorbance at 490 nm.

[7] = system: peripheral blood derived lymphocytes; assay: CCK-8 cytotoxicity assay on PBMCs / iCIKs; assay type: cell-based, Human; conditions: CCK-8, 1-64 μM, 24 hours
Protocol: as §8, §9

[8] = system: Jurkat T cells; assay: CCK-8 cytotoxicity assay on Jurkat T cells; assay type: cell-based, Human; conditions: CCK-8, 1-64 μM, 24 hours
Protocol: as §8, §9

- ka [1]: 29000 M⁻¹ s⁻¹
- ka [2]: 77600 M⁻¹ s⁻¹
Compound: CC[C@H](C)[C@H](NC(=O)[C@H](CCC(=O)O)NC(=O)[C@H](CCCCN)NC(=O)[C@H](CC(C)C)NC(=O)[C@H](CCCCNC(=O)[C@H](CC(C)C)NC(=O)[C@H](CCCNC(=N)N)NC(=O)[C@H](Cc1c[nH]cn1)NC(=O)[C@H](Cc1c[nH]cn1)NC(=O)[C@H](Cc1c[nH]cn1)NC(=O)[C@@H](N)CO)NC(=O)[C@H](CC(C)C)NC(=O)[C@H](CCCNC(=N)N)NC(=O)[C@H](Cc1c[nH]cn1)NC(=O)[C@H](Cc1c[nH]cn1)NC(=O)[C@H](Cc1c[nH]cn1)NC(=O)[C@@H](N)CO)C(=O)N[C@@H](C)C(=O)N[C@@H](CC(N)=O)C(=O)N[C@@H](CS)C(=O)N[C@@H](CO)C(=O)N1CCC[C@H]1C(=O)N[C@H](C(=O)N[C@@H](CCC(N)=O)C(=O)N[C@@H](Cc1ccccc1)C(=O)N[C@@H](CCCCN)C(=O)N[C@@H](CS)C(=O)O)[C@@H](C)O [nABP786] (HELM PEPTIDE1{S.H.H.H.R.L.K.L.K.E.I.A.N.C.S.P.T.Q.F.K.C}|PEPTIDE2{S.H.H.H.R.L}$PEPTIDE1,PEPTIDE2,7:R3-6:R2$$$V2.0)

Compound: Atezolizumab
- Kd [3]: 0.4 nM

Compound: Cemiplimab
- Kd [4]: 6.11 nM

Compound: Cindilimab
- Kd [4]: 0.25 nM

Compound: Durvalumab
- Kd [3]: 0.667 nM

Compound: I: SHHHRLKLKEIANSPTQFWRMVARNTLGNGAKQSLNIEHA / II: SHHHRL (amide I:7-II:C) [nABP486]
- direct cytotoxicity to Cal27 cells [5]: no directly cytotoxicity; also recorded: no direct killing ability to Cal27 cells; also recorded: non-toxic and side effects
- iCIKs-mediated cytotoxicity (killing ability) for Cal27 cells [6]: significantly increased; also recorded: significantly reverse the immune escape of tongue cancer cells; also recorded: superior to functional anti-PD-1 antibody; also recorded: can enhance the tumor killing effect of lymphocytes on tumor cells
- toxicity on peripheral blood derived lymphocytes [7]: non-toxic and side effects
- direct cytotoxicity to Jurkat T cells [8]: no directly cytotoxicity; also recorded: non-toxic and side effects

Compound: I: SRLKEIANSPTQFWRMVARNTLGNHAKQSLNIEHA / II: SHHHRL (amide I:27-II:C) [nABP386]
- direct cytotoxicity to Cal27 cells [5]: no directly cytotoxicity; also recorded: non-toxic and side effects
- iCIKs-mediated cytotoxicity (killing ability) for Cal27 cells [6]: can enhance the tumor killing effect of lymphocytes on tumor cells
- toxicity on peripheral blood derived lymphocytes [7]: non-toxic and side effects
- direct cytotoxicity to Jurkat T cells [8]: no directly cytotoxicity; also recorded: non-toxic and side effects

Compound: Toripalimab
- Kd [4]: 0.324 nM
